Values of other authors in US9351995B1, “Compositions and methods of enhancing wound healing” (RED OAX HOLDINGS, LLC, priority 2011, dated 2016).

What was measured:
[1] = system: human surface respiratory epithelium; conditions: cited from earlier work
fibroblast = conditions: cited from earlier work

Compound	effect on repair of small-size injuries [1]	fibroblast outgrowth (fibroblast)
C=C1[C@@H](C)[C@H]2[C@H](Cc3ccccc3)NC(=O)[C@]23OC(=O)/C=C/[C@H](O)CCC[C@@H](C)C/C=C/[C@H]3[C@@H]1O [cytochalasin B]	prevented cell migration	–
COc1cc2c(c(OC)c1OC)-c1ccc(OC)c(=O)cc1[C@@H](NC(C)=O)CC2 [colchicine]	did not interrupt the repair process	–
[Br-].[Br-].[Mg+2] [MgBr2]	–	inhibitory effects on fibroblast outgrowth
